The test system of this experiment is MX-1 breast xenograft, intrarenal, nude mice, tumor weight. Nature of the experiment: NCI In Vivo Anticancer Drug Screen. Data for tumor model Human Mammary Carcinoma MX-1 Xenograft (intrarenal inoculation) in NU/NU BALB/C (nude) mice. The note with it: endpoint: mean tumor weight change, higher = larger tumour. The method, boiled down:
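T/C readout: treated-group measurement over vehicle-control measurement, using tumor size or survival in tumor-bearing mice.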

Values joined by “and” are separate entries in the source; they are usually repeats but may differ in a detail not shown here. Equal entries are not always repeated. Records with an inconclusive call do not appear.

Consider `COc1cc([C@@H]2c3cc4c(cc3[C@@H](OC3OC5COC(C)OC5C(O)C3O)[C@H]3COC(=O)[C@H]23)OCO4)cc(OC)c1O` (some centres undefined), for which the T/C reads like this: (dose: 2.0 mg/kg/injection, schedule: Q01DX010 (ip), vehicle: saline) 58 % of control and 62 % of control; (dose: 4.0 mg/kg/injection, schedule: Q01DX010 (ip), vehicle: saline) 23 % of control and 30 % of control; (dose: 8.0 mg/kg/injection, schedule: Q01DX010 (ip), vehicle: saline) 5 % of control and 20 % of control; (dose: 16.0 mg/kg/injection, schedule: Q01DX010 (ip), vehicle: saline) 4 % of control and 6 % of control; (dose: 64.0 mg/kg/injection, schedule: Q04DX003 (ip), vehicle: saline) 76 % of control.

For the molecule `C=C(C)C1C2CC3(C)C4(CO4)C4OC4C3(O)C1C(=O)O2` (centres undefined), the T/C is 116 % of control (dose: 0.15 mg/kg/injection, schedule: Q04DX003 (ip), vehicle: Klucel (hydroxypropylcellulose) (HPC)); 86 % of control (dose: 0.31 mg/kg/injection, schedule: Q04DX003 (ip), vehicle: Klucel (hydroxypropylcellulose) (HPC)); 106 % of control (dose: 0.62 mg/kg/injection, schedule: Q04DX003 (ip), vehicle: Klucel (hydroxypropylcellulose) (HPC)).

Regarding `COC(=O)C1C2CCCN2OC1(C)CO` (centres undefined), the T/C was 224 % of control (dose: 30.0 mg/kg/injection, schedule: Q01DX001 (ip), vehicle: saline); 118 % of control (dose: 240.0 mg/kg/injection, schedule: Q01DX001 (ip), vehicle: saline); 80 % of control (dose: 480.0 mg/kg/injection, schedule: Q01DX001 (ip), vehicle: saline).

Turning to `C[C@@](O)(/C=C/[C@H]1CC=CC(=O)O1)[C@@H](C[C@@H](O)\C=C/C=C\C=C\CO)OP(=O)(O)O`, the T/C is, setting by setting: (dose: 1.5 mg/kg/injection, schedule: Q01DX009 (ip), vehicle: other) 113 % of control; (dose: 6.0 mg/kg/injection, schedule: Q01DX009 (ip), vehicle: other) 57 % of control; (dose: 12.0 mg/kg/injection, schedule: Q01DX009 (ip), vehicle: other) 61 % of control; (dose: 37.5 mg/kg/injection, schedule: Q04DX003 (sc), vehicle: other) 29 % of control.

For the molecule `CCC(=O)[O][Bi]([c]1ccccc1)[c]1ccccc1`, the T/C (dose: 12.5 mg/kg/injection, schedule: Q04DX003 (ip), vehicle: Klucel (hydroxypropylcellulose) (HPC)) was 100 % of control and the T/C (dose: 25.0 mg/kg/injection, schedule: Q04DX003 (ip), vehicle: Klucel (hydroxypropylcellulose) (HPC)) is 77 % of control.

Take `N#Cc1c(-c2ccc(F)cc2)c(-c2ccc(F)cc2)nn(CCO)c1=O`: the T/C reads like this: (dose: 50.0 mg/kg/injection, schedule: Q04DX003 (ip), vehicle: distilled water + Tween-80) 109 % of control; (dose: 400.0 mg/kg/injection, schedule: Q04DX003 (ip), vehicle: distilled water + Tween-80) -28 % of control.

`NC(N)=NOCC[C@@H](N)C(=O)O`: the T/C (dose: 300.0 mg/kg/injection, schedule: Q04DX003 (sc), vehicle: saline) is 87 % of control; the T/C (dose: 600.0 mg/kg/injection, schedule: Q04DX003 (sc), vehicle: saline) is 111 % of control; the T/C (dose: 1200.0 mg/kg/injection, schedule: Q04DX003 (sc), vehicle: saline) is 86 % of control; the T/C (dose: 2400.0 mg/kg/injection, schedule: Q04DX003 (sc), vehicle: saline) was 77 % of control.

For the molecule `N/C(=N/N=C/c1cc(Br)cc(Br)c1O)NO`, the T/C is 107 % of control (dose: 50.0 mg/kg/injection, schedule: Q04DX003 (ip), vehicle: suspension in saline) and 27 % of control (dose: 200.0 mg/kg/injection, schedule: Q04DX003 (ip), vehicle: suspension in saline).

With `CS(C)=O`, the T/C runs as follows: (dose: 750.0 mg/kg/injection, schedule: Q01DX010 (sc), vehicle: saline) 122 % of control; (dose: 3000.0 mg/kg/injection, schedule: Q01DX010 (sc), vehicle: saline) 121 % of control.

For `O=C(CCCN1CCC(O)(c2cccc(C(F)(F)F)c2)CC1)c1ccc(F)cc1`, the T/C (dose: 25.0 mg/kg/injection, schedule: Q01DX010 (sc), vehicle: Klucel (hydroxypropylcellulose) (HPC)) was 33 % of control.

With `O=NNc1ccc2cccnc2n1`, the T/C runs as follows: (dose: 37.5 mg/kg/injection, schedule: Q04DX003 (ip), vehicle: other) 6 % of control; (dose: 37.5 mg/kg/injection, schedule: Q04DX003 (ip), vehicle: water) 63 % of control; (dose: 75.0 mg/kg/injection, schedule: Q04DX003 (ip), vehicle: other) -45 % of control; (dose: 75.0 mg/kg/injection, schedule: Q04DX003 (ip), vehicle: water) 17 % of control; (dose: 150.0 mg/kg/injection, schedule: Q04DX003 (ip), vehicle: water) 9 % of control.

On to `COc1cccc(Sc2ccc([N+](=O)[O-])c3no[n+]([O-])c23)c1`, for which the T/C runs as follows: (dose: 7.5 mg/kg/injection, schedule: Q04DX003 (ip), vehicle: saline with Tween-80) 69 % of control and 86 % of control; (dose: 30.0 mg/kg/injection, schedule: Q04DX003 (ip), vehicle: saline with Tween-80) 124 % of control; (dose: 480.0 mg/kg/injection, schedule: Q04DX003 (ip), vehicle: saline with Tween-80) 36 % of control and 41 % of control and 50 % of control.

Consider `COc1cc2cc3c(c(O)c2c(O)c1/C=C/C(C)C)C(=O)CC(C)(OC(C)=O)C3` (centres undefined), for which the T/C is, setting by setting: (dose: 5.0 mg/kg/injection, schedule: Q04DX003 (ip), vehicle: Klucel (hydroxypropylcellulose) (HPC)) 85 % of control; (dose: 10.0 mg/kg/injection, schedule: Q04DX003 (ip), vehicle: Klucel (hydroxypropylcellulose) (HPC)) 66 % of control; (dose: 20.0 mg/kg/injection, schedule: Q04DX003 (ip), vehicle: Klucel (hydroxypropylcellulose) (HPC)) 63 % of control.

Turning to `C[C@@]1(CO)[C@H](O)CC[C@@]2(C)[C@H]1CC[C@H]1C[C@@H]3C[C@@]12CC[C@@]3(O)COC(=O)CN`, the T/C reads like this: (dose: 50.0 mg/kg/injection, schedule: Q04DX003 (ip), vehicle: saline + alcohol) 107 % of control; (dose: 100.0 mg/kg/injection, schedule: Q04DX003 (ip), vehicle: saline + alcohol) 95 % of control.

In the case of `C=Cc1cc(OC)c2c(c1)c(=O)oc1c2cc(OC)c2c(O)ccc(C3OC(C)C(O)C(C)(O)C3O)c21` (centres undefined), the T/C by setting is: (dose: 37.5 mg/kg/injection, schedule: Q04DX003 (ip), vehicle: DMSO) 95 % of control; (dose: 75.0 mg/kg/injection, schedule: Q04DX003 (ip), vehicle: DMSO) 86 % of control; (dose: 150.0 mg/kg/injection, schedule: Q04DX003 (ip), vehicle: DMSO) 79 % of control; (dose: 300.0 mg/kg/injection, schedule: Q04DX003 (ip), vehicle: DMSO) 64 % of control.

As for `NNC(=O)c1ccncc1`, where the note is “dose: 150.0 mg/kg/injection, schedule: Q04DX003 (sc), vehicle: saline”, the T/C is 123 % of control.

Consider `CCOC(=O)NC1=C(N2CC2)C(=O)C(NC(=O)OCC)=C(N2CC2)C1=O`, for which the T/C was 45 % of control (dose: 1.56 mg/kg/injection, schedule: Q01DX010 (sc), vehicle: saline); 13 % of control (dose: 3.13 mg/kg/injection, schedule: Q01DX010 (sc), vehicle: saline); -75 % of control (dose: 6.25 mg/kg/injection, schedule: Q01DX010 (sc), vehicle: saline).

`O=NNc1cccnc1`: the T/C is 103 % of control and 113 % of control (dose: 25.0 mg/kg/injection, schedule: Q04DX003 (ip), vehicle: water); 108 % of control (dose: 50.0 mg/kg/injection, schedule: Q04DX003 (ip), vehicle: water).

For `Nc1ccn([C@@H](C=O)O[C@@H](C=O)CO)c(=O)n1`, the T/C reads like this: (dose: 50.0 mg/kg/injection, schedule: Q04DX003 (sc), vehicle: saline) 70 % of control; (dose: 100.0 mg/kg/injection, schedule: Q04DX003 (sc), vehicle: saline) 14 % of control; (dose: 200.0 mg/kg/injection, schedule: Q04DX003 (sc), vehicle: saline) -85 % of control.

Turning to `Nc1ccn(C2OC(CO)C(O)C2O)c(=O)n1` (centres undefined), the T/C reads like this: (dose: 500.0 mg/kg/injection, schedule: Q04DX003 (sc), vehicle: saline) 57 % of control; (dose: 1000.0 mg/kg/injection, schedule: Q04DX003 (sc), vehicle: saline) 68 % of control.

As for `O=C(Nc1ccccc1)c1c(O)[nH]c(=O)[nH]c1=O`, the T/C by setting is: (dose: 100.0 mg/kg/injection, schedule: Q04DX003 (ip), vehicle: saline with Tween-80) 102 % of control; (dose: 200.0 mg/kg/injection, schedule: Q04DX003 (ip), vehicle: saline with Tween-80) 71 % of control; (dose: 400.0 mg/kg/injection, schedule: Q04DX003 (ip), vehicle: saline with Tween-80) 57 % of control.

The values are drawn from PubChem BioAssay AID298 (DTP/NCI, 2004).
